Test results reported in patent publication US20240166660A1, “KRAS G12C INHIBITORS” (BeiGene Switzerland GmbH, priority 2021, published 2024).

These compounds were tested against KRAS (aa 1-169) G12C, C51S, C80L, C118S (Homo sapiens (Human), UniProt P01116, C118S/C51S/C80L/G12C) (assay: Biochemical functional assay: SOS1-mediated nucleotide exchange of GDP-loaded KRAS G12C, binding to GST-cRaf RBD, FRET readout). Conditions: 3 hrs pre-incubation with compound at 24° C., SOS1, GTPyS, bound in uM.
KRAS (aa 1-169) G12C, C51S, C80L, C118S, sequence (P01116 other isoform, or with tags, fused parts or gaps G12C/C51S/C80L/C118S): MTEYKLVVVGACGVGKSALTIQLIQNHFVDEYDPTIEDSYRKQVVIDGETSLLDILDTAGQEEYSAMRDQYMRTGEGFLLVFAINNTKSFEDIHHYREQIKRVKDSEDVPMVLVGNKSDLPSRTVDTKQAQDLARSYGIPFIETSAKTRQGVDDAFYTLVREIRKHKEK
Outline: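 GDP-loaded His-tagged KRAS construct preincubated with compound 3 h at 24° C in 25 mM HEPES pH7.5, 10 mM MgCl2, 0.01% Triton X-100; SOS1 (aa 564-1049), GTPγS and GST-cRaf RBD added for 3 h, then anti-His Tb cryptate/anti-GST XL665 for 3 h. HTRF 665/620 ratio; IC50 by four-parameter logistic fit.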
Compound C=CC(=O)N1CCN(c2nc(N3CC(N(C)C)C3)nc3cc(-c4ccccc4F)c4c(c23)OCCC4)CC1 [Compound B16, 1-(4-(8-(3-(dimethylamino)azetidin-1-yl)-5-(2-fluorophenyl)-3,4-dihydro-2H-pyrano[2,3-f]quinazolin-10-yl)piperazin-1-yl)prop-2-en-1-one] has an IC50 of over 10 µM. Work on C=CC(=O)N1CCN(c2nc(N3CC(N(C)C)C3)nc3cc(-c4ccccc4Cl)c4c(c23)OCCC4)CC1 [Compound B21, 1-(4-(5-(2-chlorophenyl)-8-(3-(dimethylamino)azetidin-1-yl)-3,4-dihydro-2H-pyrano[2,3-f]quinazolin-10-yl)piperazin-1-yl)prop-2-en-1-one] yielded an IC50 of over 10 µM. C=CC(=O)N1CCN(c2nc(OC[C@@H]3C[C@@H](F)CN3C)nc3cc(-c4cccc(F)c4F)c4c(c23)OCCC4)CC1 [Compound B14, 1-(4-(5-(2,3-difluorophenyl)-8-(((2S,4R)-4-fluoro-1-methylpyrrolidin-2-yl)methoxy)-3,4-dihydro-2H-pyrano[2,3-f]quinazolin-10-yl)piperazin-1-yl)prop-2-en-1-one] gave an IC50 of over 10 µM.

Same assay, conditions: 3 hrs pre-incubation with compound at 24° C., SOS1, GTPyS, inhibition of nucleotide exchange
For C=CC(=O)N1CCN(c2nc(OC[C@@H]3CCCN3C)nc3cc(-c4c(Cl)cccc4Cl)c4ccoc4c23)CC1 [Compound B59, (S)-1-(4-(4-(2,6-dichlorophenyl)-7-((1-methylpyrrolidin-2-yl)methoxy)furo[2,3-f]quinazolin-9-yl)piperazin-1-yl)prop-2-en-1-one], the IC50 was 0.745 µM. C=CC(=O)N1CCN(c2nc(N3CCC(N(C)C)C3)nc3cc(-c4c(Cl)c(C)cc5[nH]ncc45)c4c(c23)OCCC4)CC1 (stereo not drawn) [Compound B25, 1-(4-(5-(5-chloro-6-methyl-1H-indazol-4-yl)-8-(3-(dimethylamino)pyrrolidin-1-yl)-3,4-dihydro-2H-pyrano[2,3-f]quinazolin-10-yl)piperazin-1-yl)prop-2-en-1-one] was tested, and the IC50 was 0.138 µM. In the case of C=CC(=O)N1CC2(CCN(c3nc(OC[C@@H]4CCCN4C)nc4cc(-c5cccc6cccc(Cl)c56)c5ccoc5c34)CC2)C1 [Compound B51, (S)-1-(7-(4-(8-chloronaphthalen-1-yl)-7-((1-methylpyrrolidin-2-yl)methoxy)furo[2,3-f]quinazolin-9-yl)-2,7-diazaspiro[3.5]nonan-2-yl)prop-2-en-1-one], the IC50 is reported as 1.01 µM. Work on C=C(F)C(=O)N1CCN(c2nc(OC[C@]3(C)CCCN3C)nc3cc(-c4cccc5cccc(Cl)c45)c4c(c23)OCCC4)C[C@@H]1CC#N [Compound B60, 2-((S)-4-(5-(8-chloronaphthalen-1-yl)-8-(((S)-1,2-dimethylpyrrolidin-2-yl)methoxy)-3,4-dihydro-2H-pyrano[2,3-f]quinazolin-10-yl)-1-(2-fluoroacryloyl)piperazin-2-yl)acetonitrile] yielded an IC50 of 0.252 µM. For C=CC(=O)N1C[C@H](C)N(c2nc(OC[C@@H]3CCCN3C)nc3cc(-c4cccc5cccc(Cl)c45)c4ccoc4c23)C[C@H]1C [Compound B52, 1-((2R,5S)-4-(4-(8-chloronaphthalen-1-yl)-7-(((S)-1-methylpyrrolidin-2-yl)methoxy)furo[2,3-f]quinazolin-9-yl)-2,5-dimethylpiperazin-1-yl)prop-2-en-1-one], the IC50 was 0.654 µM. C=C(F)C(=O)N1CCN(c2nc(OC[C@@H]3CCCN3C)nc3cc(-c4ccc(Cl)c5ccccc45)c4c(c23)OCCC4)C[C@@H]1CC#N [Compound B98, 2-((S)-4-(5-(4-chloronaphthalen-1-yl)-8-(((S)-1-methylpyrrolidin-2-yl)methoxy)-3,4-dihydro-2H-pyrano[2,3-f]quinazolin-10-yl)-1-(2-fluoroacryloyl)piperazin-2-yl)acetonitrile] was tested, and the IC50 was 0.462 µM. For C=C(F)C(=O)N1CCN(c2nc(N3CCCC(N(C)C)C3)nc3cc(-c4cccc5cccc(Cl)c45)c4c(c23)OCCC4)C[C@@H]1CC#N (stereo partly drawn) [Compound B74, 2-((2S)-4-(5-(8-chloronaphthalen-1-yl)-8-(3-(dimethylamino)piperidin-1-yl)-3,4-dihydro-2H-pyrano[2,3-f]quinazolin-10-yl)-1-(2-fluoroacryloyl)piperazin-2-yl)acetonitrile], the IC50 was 0.837 µM. In the case of C=C(F)C(=O)N1CCN(c2nc(OC3CCCN(C)C3)nc3cc(-c4cccc5cccc(Cl)c45)c4c(c23)OCCC4)C[C@@H]1CC#N (stereo partly drawn) [Compound B84, 2-((2S)-4-(5-(8-chloronaphthalen-1-yl)-8-((1-methylpiperidin-3-yl)oxy)-3,4-dihydro-2H-pyrano[2,3-f]quinazolin-10-yl)-1-(2-fluoroacryloyl)piperazin-2-yl)acetonitrile], the IC50 is reported as 0.483 µM. With C=C(F)C(=O)N1CCN(c2nc(OC3CCCC3N(C)C)nc3cc(-c4cccc5cccc(Cl)c45)c4c(c23)OCCC4)C[C@@H]1CC#N (stereo partly drawn) [Compound B50, 2-((2S)-4-(5-(8-chloronaphthalen-1-yl)-8-((2-(dimethylamino)cyclopentyl)oxy)-3,4-dihydro-2H-pyrano[2,3-f]quinazolin-10-yl)-1-(2-fluoroacryloyl)piperazin-2-yl)acetonitrile] the IC50 was 0.289 µM. C=C(F)C(=O)N1CCN(c2nc(O[C@@H]3CCN(C)C3)nc3cc(-c4cccc5cccc(Cl)c45)c4c(c23)OCCC4)C[C@@H]1CC#N [Compound B71, 2-((S)-4-(5-(8-chloronaphthalen-1-yl)-8-(((R)-1-methylpyrrolidin-3-yl)oxy)-3,4-dihydro-2H-pyrano[2,3-f]quinazolin-10-yl)-1-(2-fluoroacryloyl)piperazin-2-yl)acetonitrile] was tested, and the IC50 was 0.304 µM. With C=CC(=O)N1CCN(c2nc(OC[C@@H]3CCCN3C)nc3cc(-c4c(C)cccc4Cl)c4ccoc4c23)CC1 [Compound B76, 1-(4-(4-(2-chloro-6-methylphenyl)-7-(((S)-1-methylpyrrolidin-2-yl)methoxy)furo[2,3-f]quinazolin-9-yl)piperazin-1-yl)prop-2-en-1-one] the IC50 was 0.279 µM. For C=C(F)C(=O)N1CCN(c2nc(OC[C@@H]3CCCN3C)nc3cc(-c4ccccc4F)c4c(c23)OCCC4)C[C@@H]1CC#N [Compound B31, 2-((S)-1-(2-fluoroacryloyl)-4-(5-(2-fluorophenyl)-8-(((S)-1-methylpyrrolidin-2-yl)methoxy)-3,4-dihydro-2H-pyrano[2,3-f]quinazolin-10-yl)piperazin-2-yl)acetonitrile], the IC50 was 0.984 µM. C=CC(=O)N1CCN(c2ncnc3cc(-c4c(C)ccc5[nH]ncc45)c4c(c23)OCCC4)C[C@@H]1CC#N [Compound A10, 2-((2S)-1-acryloyl-4-(5-(5-methyl-1H-indazol-4-yl)-3,4-dihydro-2H-pyrano[2,3-f]quinazolin-10-yl)piperazin-2-yl)acetonitrile] showed an IC50 of 0.598 µM. Compound C=C(F)C(=O)N1CCN(c2nc(OC[C@@H]3COCCN3C)nc3cc(-c4cccc5cccc(Cl)c45)c4c(c23)OCCC4)C[C@@H]1CC#N [Compound B72, 2-((S)-4-(5-(8-chloronaphthalen-1-yl)-8-(((S)-4-methylmorpholin-3-yl)methoxy)-3,4-dihydro-2H-pyrano[2,3-f]quinazolin-10-yl)-1-(2-fluoroacryloyl)piperazin-2-yl)acetonitrile] has an IC50 of 0.194 µM. Compound C=CC(=O)N1CCN(c2ncnc3cc(-c4c(Cl)c(F)cc5[nH]ncc45)c4c(c23)OCCC4)C[C@@H]1CC#N [Compound A17, 2-((2S)-1-acryloyl-4-(5-(5-chloro-6-fluoro-1H-indazol-4-yl)-3,4-dihydro-2H-pyrano[2,3-f]quinazolin-10-yl)piperazin-2-yl)acetonitrile] has an IC50 of 0.0317 µM. C=C(F)C(=O)N1CCN(c2nc(OC3COCC3N(C)C)nc3cc(-c4cccc5cccc(Cl)c45)c4c(c23)OCCC4)C[C@@H]1CC#N (stereo partly drawn) [Compound B69, 2-((2S)-4-(5-(8-chloronaphthalen-1-yl)-8-((4-(dimethylamino)tetrahydrofuran-3-yl)oxy)-3,4-dihydro-2H-pyrano[2,3-f]quinazolin-10-yl)-1-(2-fluoroacryloyl)piperazin-2-yl)acetonitrile] was tested, and the IC50 was 1.22 µM. Work on C=CC(=O)N1CCN(c2nc(OCCN(C)C)nc3cc(-c4c(Cl)c(C)cc5[nH]ncc45)c4c(c23)OCCC4)C[C@@H]1CC#N [Compound B5, 2-((2S)-1-acryloyl-4-(5-(5-chloro-6-methyl-1H-indazol-4-yl)-8-(2-(dimethylamino)ethoxy)-3,4-dihydro-2H-pyrano[2,3-f]quinazolin-10-yl)piperazin-2-yl)acetonitrile] yielded an IC50 of 0.0079 µM. C=CC(=O)N1CCN(c2ncnc3cc(-c4c(O)cccc4F)c4c(c23)OC(C)(C)CC4)CC1 [Compound A2, 1-(4-(5-(2-fluoro-6-hydroxyphenyl)-2,2-dimethyl-3,4-dihydro-2H-pyrano[2,3-f]quinazolin-10-yl)piperazin-1-yl)prop-2-en-1-one] was tested, and the IC50 was 2.12 µM. In the case of C=C(F)C(=O)N1CCN(c2nc(OC[C@@H]3CCCN3C)nc3cc(-c4ccc(C)cc4C(F)(F)F)c4ccoc4c23)C[C@@H]1CC#N [Compound B77, 2-((S)-1-(2-fluoroacryloyl)-4-(4-(4-methyl-2-(trifluoromethyl)phenyl)-7-(((S)-1-methylpyrrolidin-2-yl)methoxy)furo[2,3-f]quinazolin-9-yl)piperazin-2-yl)acetonitrile], the IC50 is reported as 0.535 µM. For C=C(F)C(=O)N1CCN(c2nc(OC[C@@H]3CCCN3C)nc3cc(-c4cccc5ccc(Cl)cc45)c4c(c23)OCCC4)C[C@@H]1CC#N [Compound B70, 2-((S)-4-(5-(7-chloronaphthalen-1-yl)-8-(((S)-1-methylpyrrolidin-2-yl)methoxy)-3,4-dihydro-2H-pyrano[2,3-f]quinazolin-10-yl)-1-(2-fluoroacryloyl)piperazin-2-yl)acetonitrile], the IC50 was 0.035 µM. In the case of C=CC(=O)N1CCN(c2nc(OC[C@@H]3CCCN3C)nc3cc(-c4ccccc4C4CC4)c4ccoc4c23)CC1 [Compound B58, (S)-1-(4-(4-(2-cyclopropylphenyl)-7-((1-methylpyrrolidin-2-yl)methoxy)furo[2,3-f]quinazolin-9-yl)piperazin-1-yl)prop-2-en-1-one], the IC50 is reported as 0.958 µM.
